These results are taken from patent US20150258101A1 (Proximagen Limited, priority 2014, published 2015).

The structures appear in SMILES notation. Structures can show the parent of a compound that is named as a salt.

The experiment concerns the target T1, purified recombinantly expressed human SSAO (Homo sapiens, UniProt Q16853).
T1 construct: made in house
T1 sequence (Q16853 1-763): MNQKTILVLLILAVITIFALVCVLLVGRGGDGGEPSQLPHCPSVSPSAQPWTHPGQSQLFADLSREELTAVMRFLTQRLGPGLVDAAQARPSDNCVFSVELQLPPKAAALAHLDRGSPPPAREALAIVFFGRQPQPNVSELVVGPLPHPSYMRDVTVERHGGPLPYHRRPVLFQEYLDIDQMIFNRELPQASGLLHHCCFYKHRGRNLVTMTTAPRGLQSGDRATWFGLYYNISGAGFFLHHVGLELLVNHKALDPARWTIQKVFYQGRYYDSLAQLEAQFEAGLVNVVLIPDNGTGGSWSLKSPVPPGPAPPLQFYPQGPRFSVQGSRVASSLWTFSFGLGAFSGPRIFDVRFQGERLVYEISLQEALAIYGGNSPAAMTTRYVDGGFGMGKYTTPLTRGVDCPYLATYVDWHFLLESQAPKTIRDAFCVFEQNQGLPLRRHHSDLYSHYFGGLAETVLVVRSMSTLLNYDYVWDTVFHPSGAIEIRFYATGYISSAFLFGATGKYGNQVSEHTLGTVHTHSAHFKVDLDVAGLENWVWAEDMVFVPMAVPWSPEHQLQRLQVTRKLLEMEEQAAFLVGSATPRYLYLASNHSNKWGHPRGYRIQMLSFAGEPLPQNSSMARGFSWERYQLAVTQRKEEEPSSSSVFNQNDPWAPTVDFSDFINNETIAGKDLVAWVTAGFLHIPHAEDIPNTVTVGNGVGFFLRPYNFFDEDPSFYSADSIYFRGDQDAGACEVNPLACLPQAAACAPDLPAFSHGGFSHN
Nature of the experiment: SSAO enzyme inhibition assay (benzylamine substrate; hydrogen peroxide/HRP-coupled or 14C aldehyde detection). The format is biochemical. Particulars: SSAO inhibitory activity, RT. As to the method: All primary assays were performed at RT. with purified recombinantly expressed human SSAO. Enzyme was prepared essentially as described in Öhman et al. (Protein Expression and Purification 46 (2006) 321-331). In addition, secondary- and selectivity assays were performed using SSAO prepared from various tissues or purified rat recombinant SSAO. The enzyme activity was assayed with benzylamine as substrate by measuring either benzaldehyde production, using ^14C-labeled substrate, or by utilizing the production of hydrogen peroxide in a horseradish peroxidase (HRP) coupled reaction. Briefly, test compounds were dissolved in dimethyl sulfoxide (DMSO) to a concentration of 10 mM. Dose-response measurements were assayed by either creating 1:10 serial dilutions in DMSO to produce a 7 point curve or by making 1:3 serial dilutions in DMSO to produce 11 point curves.
In a horseradish peroxidase (HRP) coupled reaction, hydrogen peroxide oxidation of 10-acetyl-3,7-dihydroxyphenoxazine produced resorufin, which is a highly fluorescent compound (Zhout and Panchuk-Voloshina. Analytical Biochemistry 253 (1997) 169-174; Amplex® Red Hydrogen Peroxide/peroxidase Assay kit, Invitrogen A22188). Enzyme and compounds in 50 mM sodium phosphate, pH 7.4 were set to pre-incubate in flat-bottomed microtiter plates for approximately 15 min before initiating the reaction by addition of a mixture of HRP, benzylamine and Amplex reagent. Benzylamine concentration was fixed at a concentration corresponding to the Michaelis constant, determined using standard procedures. Fluorescence intensity was then measured at several time points during 1-2 h, exciting at 544 nm and reading the emission at 590 nm. For the human SSAO assay final concentrations of the reagents in the assay wells were: SSAO enzyme 1 ug/ml, benzylamine 100 uM, Amplex reagent 20 uM, HRP 0.1 U/mL and varying concentrations of test compound. The inhibition was measured as % decrease of the signal compared to a control without inhibitor (only diluted DMSO). The background signal from a sample containing no SSAO enzyme was subtracted from all data points. Data was fitted to a four parameter logistic model and IC50 values were calculated using the Graph Pad Prism 4 or XLfit 4 programs.
SSAO activity was assayed using 14C-labeled benzylamine and analysed by measuring radioactive benzaldehyde. In a white 96-well optiplate (Packard), 20 uL of diluted test compound was pre-incubated at room temperature with 20 uL SSAO enzyme for approximately 15 min with continuous agitation. All dilutions were made with PBS. The reaction was initiated by adding 20 uL of the benzylamine substrate solution containing [7-14C] Benzylamine hydrochloride (CFA589, GE Healthcare). The plate was incubated for 1 h as above after which the reaction was stopped by acidification (10 uL 1M aq HCl). Then 90 uL Micro Scint-E solution (Perkin-Elmer) was added to each well and the plate was continuously mixed for 15 min. Phase separation occurred instantly and activity was read in a Topcount scintillation counter (Perkin-Elmer). In the final reaction well, the human recombinant SSAO concentration was 10 ug/ml. In order to optimize sensitivity, the substrate concentration was decreased as compared to the HRP coupled assay in order to get a higher fraction of radioactive product. In the human SSAO assay, benzylamine concentration was 40 uM (0.2 uCi/mL). Data was analysed as above.
Broadly, the IC50 is the concentration needed to halve the response being measured. Turning to `Clc1ccc(-n2c(-c3cccnc3)nc3ccncc32)cc1` [Example 1, 3-[3-(4-Chlorophenyl)-3H-imidazo[4,5-c]pyridin-2-yl]pyridine], the IC50 fell in the range of 200 to 1200 nM. Consider `Clc1ccc(-n2c(-c3cnc(N4CCOCC4)cn3)nc3ccncc32)cc1` [Example 5, 4-{5-[3-(4-Chlorophenyl)-3H-imidazo[4,5-c]pyridin-2-yl]pyrazin-2-yl}morpholine], for which the 50% inhibitory concentration (IC50) fell in the range of 50 to 200 nM. To `O=C(c1ccc(-c2nc3ccncc3n2-c2ccc(Cl)cc2)cn1)N1CCOCC1` [Example 6, 4-({5-[3-(4-Chlorophenyl)-3H-imidazo[4,5-c]pyridin-2-yl]pyridin-2-yl}carbonyl) morpholine] belongs 200 to 1200 nM; to `Clc1ccc(-n2c(-c3cnc(NC4CCOCC4)cn3)nc3ccncc32)cc1` [Example 7, 5-[3-(4-Chlorophenyl)-3H-imidazo[4,5-c]pyridin-2-yl]-N-(oxan-4-yl)pyrazin-2-amine], 50 to 200 nM; to `NC1CCN(c2ccc(-c3nc4ccncc4n3-c3ccc(Cl)cc3)cn2)CC1` [Example 8, 1-{5-[3-(4-Chlorophenyl)-3H-imidazo[4,5-c]pyridin-2-yl]pyridin-2-yl}piperidin-4-amine], below 50 nM. In the case of `Fc1ccc(-n2c(-c3cnc(NCC4CC4)nc3)nc3ccncc32)cc1` [Example 9, N-(Cyclopropylmethyl)-5-[3-(4-fluorophenyl)-3H-imidazo [4,5-c]pyridin-2-yl]pyrimidin-2-amine], the half-inhibitory concentration (IC50) was below 50 nM. With `Fc1ccc(-n2c(-c3cnc(NC4CC4)nc3)nc3ccncc32)cc1` [Example 10, N-Cyclopropyl-5-[3-(4-fluorophenyl)-3H-imidazo [4,5-c]pyridin-2-yl]pyrimidin-2-amine], the half-maximal inhibitory concentration (IC50) is 50 to 200 nM. The value for `O=C(NC1CC1)c1ccc(-c2nc3ccncc3n2-c2ccc(Cl)cc2)cn1` [Example 14, 5-[3-(4-Chlorophenyl)-3H-imidazo[4,5-c]pyridin-2-yl]-N-cyclopropylpyridine-2-carboxamide] was 200 to 1200 nM; that for `Fc1ccc(-n2c(-c3ccc(C4CCOCC4)nn3)nc3ccncc32)cc1` [Example 15, 3-[3-(4-Fluorophenyl)-3H-imidazo[4,5-c]pyridin-2-yl]-6-(oxan-4-yl)pyridazine] was 50 to 200 nM; that for `CS(=O)(=O)Nc1ccc(-c2nc3ccncc3n2-c2ccc(Cl)cc2)cn1` [Example 16, N-{5-[3-(4-Chlorophenyl)-3H-imidazo[4,5-c]pyridin-2-yl]pyridin-2-yl} methanesulfonamide] was 200 to 1200 nM. To `Clc1ccc(-n2c(-c3csc(N4CCNCC4)n3)nc3ccncc32)cc1` [Example 17, 1-{4-[3-(4-Chlorophenyl)-3H-imidazo[4,5-c]pyridin-2-yl]-1,3-thiazol-2-yl}piperazine dihydrochloride] belongs 200 to 1200 nM; to `Clc1ccc(-n2c(-c3cnc(N4CCNCC4)s3)nc3ccncc32)cc1` [Example 19, 1-{5-[3-(4-Chlorophenyl)-3H-imidazo[4,5-c]pyridin-2-yl]-1,3-thiazol-2-yl}piperazine], 50 to 200 nM. Take `Cc1cc(N2CCOCC2)ncc1-c1nc2ccncc2n1-c1ccc(Cl)cc1F` [Example 22, 4-{5-[3-(4-Chloro-2-fluorophenyl)-3H-imidazo [4,5-c]pyridin-2-yl]-4-methylpyridin-2-yl}morpholine]: the IC50 was below 50 nM. For the molecule `Fc1ccc(-n2c(-c3cnc(N4CCCOCC4)nc3)nc3ccncc32)cc1` [Example 25, 4-{5-[3-(4-Fluorophenyl)-3H-imidazo[4,5-c]pyridin-2-yl]pyrimidin-2-yl}-1,4-oxazepane], the half-inhibitory concentration (IC50) is below 50 nM. `Cc1nc(N2CCOCC2)ncc1-c1nc2ccncc2n1-c1ccc(F)cc1` [Example 26, 4-{5-[3-(4-Fluorophenyl)-3H-imidazo[4,5-c]pyridin-2-yl]-4-methylpyrimidin-2-yl} morpholine]: the half-maximal inhibitory concentration (IC50) lay within 50 to 200 nM. For the molecule `Cc1nc(N2CCOCC2)ncc1-c1nc2ccncc2n1-c1ccc(Cl)cc1F` [Example 27, 4-{5-[3-(4-Chloro-2-fluorophenyl)-3H-imidazo [4,5-c]pyridin-2-yl]-4-methylpyrimidin-2-yl} morpholine], the IC50 is below 50 nM. To `COc1nc(N2CCOCC2)ccc1-c1nc2ccncc2n1-c1ccc(F)cc1` [Example 28, 4-{5-[3-(4-Fluorophenyl)-3H-imidazo[4,5-c]pyridin-2-yl]-6-methoxypyridin-2-yl} morpholine] belongs 50 to 200 nM.

`Cc1cc(N2CCOCC2)nc(C)c1-c1nc2ccncc2n1-c1ccc(F)cc1` [Example 29, 4-{5-[3-(4-Fluorophenyl)-3H-imidazo[4,5-c]pyridin-2-yl]-4,6-dimethylpyridin-2-yl} morpholine]: the concentration for half-maximal inhibition (IC50) was 200 to 1200 nM. For `Fc1ccc(-n2c(-c3cnc(C4CC4)nc3)nc3ccncc32)cc1` [Example 30, 2-Cyclopropyl-5-[3-(4-fluorophenyl)-3H-imidazo [4,5-c]pyridin-2-yl]pyrimidine], the half-inhibitory concentration (IC50) was in the range of 200 to 1200 nM. On to `Nc1ncc(-c2nc3ccncc3n2-c2ccc(Cl)cc2)cn1` [Example 31, 5-[3-(4-Chlorophenyl)-3H-imidazo[4,5-c]pyridin-2-yl] pyrimidin-2-amine], for which the IC50 fell in the range of 200 to 1200 nM. Turning to `Cn1ccc(-c2nc3ccncc3n2-c2ccc(Cl)cc2)cc1=O` [Example 32, 4-[3-(4-Chlorophenyl)-3H-imidazo[4,5-c]pyridin-2-yl]-1-methyl-1,2-dihydropyridin-2-one], the IC50 is below 50 nM. As to `Cn1cc(-c2nc3ccncc3n2-c2ccc(Cl)cc2)ccc1=O` [Example 33, 5-[3-(4-Chlorophenyl)-3H-imidazo[4,5-c]pyridin-2-yl]-1-methyl-1,2-dihydropyridin-2-one], the IC50 was 200 to 1200 nM. Consider `O=c1cc(-c2nc3ccncc3n2-c2ccc(Cl)cc2F)cc[nH]1` [Example 34, 4-[3-(4-Chloro-2-fluorophenyl)-3H-imidazo[4,5-c]pyridin-2-yl]-1,2-dihydropyridin-2-one], for which the 50% inhibitory concentration (IC50) lay within 50 to 200 nM. As to `O=c1ccc(-c2nc3ccncc3n2-c2ccc(Cl)cc2F)c[nH]1` [Example 35, 5-[3-(4-Chloro-2-fluorophenyl)-3H-imidazo[4,5-c]pyridin-2-yl]-1,2-dihydropyridin-2-one], the half-maximal inhibitory concentration (IC50) lay within 200 to 1200 nM. For `Cc1ccc(-n2c(-c3cnc(N4C[C@@H](C)O[C@@H](C)C4)nc3)nc3ccncc32)nc1` [Example 36, (2R,6S)-2,6-Dimethyl-4-{5-[3-(5-methylpyridin-2-yl)-3H-imidazo[4,5-c]pyridin-2-yl]pyrimidin-2-yl}morpholine], the IC50 fell in the range of 50 to 200 nM. As for `COCCCNc1ncc(-c2nc3ccncc3n2-c2ccc(C)cc2)cn1` [Example 37, N-(3-Methoxypropyl)-5-[3-(4-methylphenyl)-3H-imidazo [4,5-c]pyridin-2-yl]pyrimidin-2-amine], the half-maximal inhibitory concentration (IC50) was below 50 nM.

With `CC(C)OCCNc1ncc(-c2nc3ccncc3n2-c2ccc(F)cc2)cn1` [Example 38, 5-[3-(4-Fluorophenyl)-3H-imidazo[4,5-c]pyridin-2-yl]-N-[2-(propan-2-yloxy)ethyl] pyrimidin-2-amine], the IC50 lay within 50 to 200 nM.
